Reference: patent US20240190838A1, “LZK-TARGETING DEGRADERS AND METHODS OF USE” (The U.S.A., as represented by the Secretary, Department of …, priority 2020, published 2024)

Key:
[1] = tested on: c-MYC; assay: c-MYC abundance in CAL33 cells (immunoblot); assay type: cell-based
Experimental: (§1) Generally, cells were plated in six-well or 35-mm plates for 24 hours, after which doxycycline was added or treatment with specific inhibitor was administered using […] for 48 hours. After appropriate treatment time, cells were washed with ice-cold phosphate-buffered saline without Ca and Mg (Quality Biological) and then lysed on ice with RIPA buffer (50 mM NaCl, 1.0% o IGEPAL® CA-630, 0.5% o sodium deoxycholate, 0.10% SDS, 50 mM Tris, pH 8.0) (Sigma-Aldrich) supplemented with protease inhibitor tablet (Sigma-Aldrich) and phosphatase inhibitor cocktails 2 and 3 (Sigma-Aldrich) followed by centrifugation at 15,000 rpm for 10 minutes at 4° C. Protein concentrations were determined from the cell lysate by using 660 nm Protein Assay Reagent (Pierce). Cell extracts were denatured, subjected to SDS-PAGE, transferred to PVDF membranes (Bio-Rad) and blocked for 2 hours using 5 bovine serum albumin (BSA) in phosphate-buffered saline and 0.10 Tween® 20 (PBS-T). The membranes were incubated with the specific antibodies overnight in […] at 4° C. followed by a 1 hour incubation with the appropriate horseradish peroxidase-conjugated secondary antibodies and signal was detected by chemiluminescence (Thermo Fisher).

[2] = tested on: CDK2 activity in SCC-15 HNSCC cells; assay: Live-cell imaging of CDK2 activity and cell cycle in SCC-15 cells; assay type: cell-based; conditions: for CDK2 activity over the cell cycle: compared to control
Experimental: Cells were plated in 96-well plates with full growth media more than 24 hours prior to imaging, such that the density would remain sub-confluent until the end of the imaging period. Time-lapse imaging was performed in 290 μL full growth media. Images were taken in CFP and YFP channels every 12 minutes on a Nikon Ti2-E inverted microscope (Nikon) with a 20X 0.45NA objective. Total light exposure time was kept under 600 milliseconds for each time point. Cells were imaged in a humidified, 37° C. chamber at 5% CO2.
All image analyses were performed with custom MATLAB scripts as previously described (Cappell et al., Cell 2016, 166:167-180). In brief, optical illumination bias was empirically derived by sampling background areas across all wells in an imaging session, and was subsequently used to flatten all images. This enabled measurement and subtraction of a global background for each image. Cells were segmented for their nuclei based on H2B-mTurquoise. CDK2 activity was calculated by measuring the nuclear and cytoplasmic fluorescence of the DHB-mVenus protein. Cells were segmented for their cytoplasmic regions by spatially approximating a ring with an inner radius of 2 μm outside of the nuclear mask and an outer radius with a maximum of 10 μm outside of the nuclear mask. Regions within 10 μm of another nucleus were excluded. Cytoplasmic DHB-mVenus was calculated as the median intensity within the cytoplasmic ring, excluding pixel intensities indistinguishable from background.
Mitosis events were automatically identified using H2B-mTurquoise and called at anaphase when one cell split into two daughter cells, each with approximately 45-55% of the size of the mother cell. Cells were considered to have been arrested in the G2 phase if a second mitosis was not detected for more than 30 hours after the first mitosis. Following drug treatment, cells were categorized by their CDK2 activity two hours after anaphase. Cells with high CDK2 activity (defined as greater than 0.6) are considered to have immediately re-entered the cell cycle, cells with transiently low CDK2 activity (defined as less than 0.6 two hours after anaphase but rising to greater than 0.6 within the viewing time) are considered to have entered into a transient G0 state before eventually re-entering the cell cycle, and cells with low CDK2 activity (defined as less than 0.6 within the viewing time) are considered to have entered a prolonged G0 state (Arora et al., Cell Rep 2017, 19:1351-1364).

[3] = tested on: BICR56 cells; assay: MTS cell viability assay, BICR56; assay type: cell-based
Experimental: A Cell Titer 96 AQueous One Solution Cell Proliferation Assay (Promega) was used for MTS assays following the manufacturer's protocol. […] MTS was added, cells were incubated for two hours, and absorbance was measured at 490 nm using iMark™ Microplate Absorbance Reader (Bio-Rad). Graphs display percent cell viability relative to the DMSO-treated control sample. EC50 values were determined using GraphPad Prism 8.

[4] = tested on: GOF mutant p53 (R175H); assay: GOF mutant p53 abundance in CAL33 cells (immunoblot); assay type: cell-based
Experimental: as §1

[5] = tested on: Detroit 562 cells; assay: Colony formation assay, Detroit 562; assay type: cell-based
Experimental: (§2) Crystal violet assays were used to assess relative cell growth and survival after treatment with specific compounds. In general, cells were plated in triplicate in 12-well plates for 24 hours before drug treatments were added using 10% FBS media. The plates were incubated for 14 days, with the media and drug being replaced every 48 hours. The cells were then washed with phosphate-buffered saline and fixed in ice-cold methanol before being stained with 0.5% crystal violet (Sigma-Aldrich) in 25% methanol. Images were taken using a ChemiDoc MP Imaging System (Bio Rad), and for quantification, the crystal violet stain was dissolved in 33% acetic acid, incubated for 20 minutes with shaking, and read at 595 nm using iMark™ Microplate Absorbance Reader (Bio-Rad). Graphs display percent colony formation relative to the DMSO-treated control sample.

[6] = tested on: BEAS-2B cells; assay: Colony formation assay, BEAS-2B; assay type: cell-based, human
Experimental: as §2

[7] = various concentrations, 24 and 48 hours

| SMILES | concentration with observed hook effect on c-MYC and GOF-p53 decreases ([1]; 24 hours and 48 hours) | c-MYC abundance [1, 7] | cell-cycle arrest [2] | fraction of cells entering a quiescent state [2] | CDK2 activity over the cell cycle [2] | short-term cell viability [3] | GOF mutant p53 (R175H) abundance [4, 7] | colony formation ([5]; 2.5 μM) | clonogenic growth ([6]; 1 μM for 14 days, control cells) | c-MYC levels over time ([1]; 500 nM, up to 72 hours) | rescue of loss of c-MYC by LZK^Q240S expression ([1]; CAL33 cells) | IC50 ([3]; 72 hours, read-out: IC50, viability in short-term MTS assay) | GOF-p53 expression levels ([4]; catalytic inhibitor treatment) | colony formation ([6]; 200 nM, 14 days, cells lacking amplified MAP3K13) | colony formation ([5]; LZK inhibitor 2, concentration not stated) |
| --- | --- | --- | --- | --- | --- | --- | --- | --- | --- | --- | --- | --- | --- | --- | --- |
| Cc1ncsc1-c1ccc([C@H](C)NC(=O)[C@@H]2C[C@@H](O)CN2C(=O)[C@@H](NC(=O)CCCCCCC(=O)N2CCC(c3cc(Nc4cc(C#N)ccn4)nc(N4CCC(F)(F)C4)c3)CC2)C(C)(C)C)cc1 [Compound 3] | 10 µM | loss of both GOF mutant p53 (R175H) and c-MYC abundance | caused a G2-phase cell-cycle arrest | increased fraction of cells entering a quiescent state | slower increase in CDK2 activity over the cell cycle | reduced | loss of both GOF mutant p53 (R175H) and c-MYC abundance | almost complete loss of colony formation | little effect on control cells | – | – | – | – | – | – |
| N#Cc1ccnc(Nc2cc(C3CCN(C4COC4)CC3)cc(N3CCC(F)(F)C3)n2)c1 [GNE-3511] | – | – | caused a G2-phase cell-cycle arrest | increased fraction of cells entering a quiescent state | slower increase in CDK2 activity over the cell cycle | – | – | – | – | reduction in c-MYC levels that was subsequently maintained for 72 hours | rescued loss in c-MYC levels | 410 ± 59.6 nM | did not alter GOF-p53 expression levels | only a minor reduction in colony formation | – |
| CC(=O)N1CCC(c2cc(Nc3cc(C#N)ccn3)nc(N3CCC(F)(F)C3)c2)CC1 [LZK inhibitor 2] | – | – | – | – | – | – | – | – | – | – | – | – | – | – | suppressed colony formation |
